Tests used:
SH-SY5Y cells = test: MTT cytotoxicity of silibinin toward SH-SY5Y cells; format: cell-based; conditions: Homo sapiens, 24 hours, read-out: cyto-toxicity toward SH-SY5Y cells, IC50
Source text: FIGS. 1A and 1B show the effects of silibinin (SB) in reducing the death of SH-SY5Y cell induced by mono-sodium glutamate (MSG). […] Data were the mean values of three independent experiments. Ctrl: control group.
In order to monitor the cyto-toxicity of silibinin and its ability in resisting glutamatergic excitotoxicity, MTT colorimetric assay was used to measure the cell viability rate of neuroblastoma SH-SY5Y cells which were pre-treated with silibinin and mono-sodium glutamate (MSG).
After the treatment, 0.5 mg/mL MTT was added to the culture media, and the cells were incubated for 3 hours at 37° C. 100 μL lysis solution (10% sodium dodecyl sulfate (SDS) and 0.01N HCl) was added and the absorbance of the media was read at OD570. The percentage of cell viability was calculated as follows:
Cell viability (%)=(OD570 of experimental well/OD570 of control well)×100%

SCA17 transgenic mice [1] = test: Rotarod test in SCA17 transgenic mice; format: in vivo; conditions: 4.5 mg/kg i.p. once every 2 days from 8 weeks old
Experimental: FIGS. 10A-10F show the effects of SB on the body weight and motor performance in SCA17 transgenic mice. Mice were grouped into wild type-saline (WT-saline), transgenic-saline (TG-saline), and transgenic-SB treatment (TG-SB) groups. Mice were injected intraperitoneally with saline or SB (4.5 mg/kg) at 8-week old once every 2 days. […] FIG. 10E and FIG. 10F show respectively the stride length of front-limb/hind-limb at the right-side and the left-side. The values represent means±SD, n=6. *p<0.05, comparing to the TG-saline group.
(§1) Since the SCA17 mice were 8 weeks old, the mice were injected intraperitoneally with silibinin in saline at 4.5 mg/kg once every 2 days, designated as TG_SB group. The mice in TG_saline group were injected with same amount of saline.
At the 10th week, the rotarod test was performed to measure the motor coordination of the mice. The mice were trained prior to drug treatment. The mouse was placed on the rotarod with acceleration from 2 to 20 rpm for 5 minutes maintaining at 20 rpm for 5 more minutes to establish the baseline of the behavior of the mouse.
The condition was maintained at a linear acceleration from 4 to 30 rpm within 5 minutes during the testing period. The rotarod test was performed once every 2 weeks, since the mouse was 10 weeks old till 20 weeks old. […] The latency of fall was recorded. […]

SCA17 transgenic mice [2] = test: Western blotting of TBP/polyQ aggregation and cleaved caspase 3 in cerebellum of SCA17 mice; format: in vivo; conditions: 4.5 mg/kg i.p. once every 2 days, 20 weeks old
Experimental: FIGS. 11A and 11B show the effects of SB on the levels of TBP (N12) and cleaved caspase-3 in SCA17 transgenic mice. Mice were grouped into wild type-saline (WT-saline), transgenic-saline (TG-saline), and transgenic-SB treatment (TG-SB) groups. Mice were injected intraperitoneally with saline or SB (4.5 mg/kg) at 8-week old once every 2 days. FIG. 11A: The extent of TBP aggregation (detected with TBP (N12) antibody) and the levels of cleaved caspase-3 in the cerebella of mice were measured by western blotting at 20-week old. Actin was used as a loading control. […] The results were shown as mean±SEM, n=6, *p<0.05, comparing to the TG-saline group.
as §1
In order to understand whether silibinin can reduce TBP/polyQ protein aggregation and the expression of cleaved-caspase 3 in the cerebellum of SCA17 mouse, TBP/polyQ protein aggregation and the expression of cleaved-caspase 3 in the cerebellum of SCA17 mouse were measured. […]

COc1cc(C2Oc3cc([C@H]4Oc5cc(O)cc(O)c5C(=O)[C@@H]4O)ccc3OC2CO)ccc1O (stereo partly shown) [silibinin]
IC50 (SH-SY5Y cells): 30 µM
average time of the latency of fall, rotarod (SCA17 transgenic mice [1]): 393 ± 36 s
inhibition of TBP/polyQ protein aggregation in cerebellum (SCA17 transgenic mice [2]): 100%
inhibition of cleaved caspase 3 protein level in cerebellum (SCA17 transgenic mice [2]): 25%

— patent US20170246144A1, “METHOD OF PREVENTING OR TREATING SPINOCEREBELLAR ATAXIA BY ADMINISTRATING SILIBININ” (National Taiwan Normal University, priority 2016, published 2017)
